The values that follow come from patent US20080125408A1, “PENEM PRODRUG” (Pfizer Inc, priority 2006, published 2008).

In general, Km refers to the concentration of substrate that gives half-maximal velocity. By solubility is commonly meant the dissolved amount per volume that the medium holds. Low readings indicate a poorly soluble substance, high ones a readily soluble substance. Broadly, the half-life is the time needed for the level to fall by half in the phase considered.

Data set [1] can be described thus: Human Intestinal Juice (HIJ) stability studies. In kind it is in vitro ADME. The note with it: pooled HIJ from 4 subjects, buffered pH 7.4, 37° C., substrate 1-300 μM; for Km: human, pooled human intestinal juice (HIJ). As to the method: In the HIJ experiments, HIJ from 4 individual subjects (1 mL each) was pooled with 1 mL of 600 mM potassium phosphate buffer pH 7.4. Aliquots of 300 μL×6 of the buffered human intestinal juice were incubated at 37° C. following fortification of substrate at concentrations of 300, 100, 30, 10, 3, and 1 μM. Two prodrug compounds could be run at the same time. Samples of 35 μL were taken at 0, 0.5, 1, 2, 10, and 20 minutes and quenched with 70 μL of 80/20 acetonitrile/100 mM ammonium acetate pH 4.5 containing an internal standard (ampicillin, 5 μg/mL). Samples were centrifuged at 3000 g for 10 minutes and the supernatants transferred to injection vials. First order degradation of the prodrug was monitored by LC/MS/MS as described below. The percentage of prodrug remaining versus time at each concentration was fitted to a first order decay function to determine the substrate depletion rate constant or kdep. A linear-log plot of kdep versus concentration could be fitted with the following equation where: [formula] […] In Michaelis-Menton terms, intrinsic clearance CLint represents the ratio of Vmax/Km when [S] is well below the Km. Substrate units for these studies were reported in μM and intrinsic clearance (CIint) in mL/min.

Data set [2] is described as follows: Equilibrium solubility in phosphate buffer pH 5. Conditions: phosphate buffer, pH 5, aqueous buffer, thermodynamic from solid.
Data set [3] is described as follows: Liver S9 stability and conversion efficiency to sulopenem. In kind it is in vitro ADME, human. Conditions: human; prodrug degradation; liver S9 1:10, 50 μM, pH 7.4, 37° C. How it is done: Oral bioavailability can be predicted variously by factors including one or more of (1) GI tract stability, (2) Caco-2 permeability, (3) efficiency of conversion to sulopenem, and (4) high solubility. Accordingly, the sulopenem prodrugs of the invention were evaluated, as detailed below, for stability in human intestinal juice (HIJ), efficiency of conversion to sulopenem in human liver homogenate, whole blood conversion and solubility as measured in phosphate buffer pH 5.0. Liver S9 was prepared fresh from liver chunks stored at −70° C. for each analysis completed. Approximately 5 g of frozen liver tissue was homogenized to uniformity in 15 mL of ice cold 100 mM potassium phosphate (pH 7.4) buffer. The homogenate was then centrifuged at 9000 g for 20 minutes at 5° C. to isolate the S9 supernatant fraction. Each incubation was run at a 1:10 dilution of the S9 supernatant in 100 mM potassium phosphate (pH 7.4) buffer. Reactions (1 mL) were initiated by the addition of substrate (50 μM final) at 37° C. Stability and conversion efficiency were assessed in 1 mL incubations with heparinized whole blood at 37° C. For both S9 homogenates and whole blood incubations, aliquots (75 μL) were obtained at 0, 0.5, 1, 2, 3, 5, 10, and 20 minutes and quenched in 150 μL of 80/20 acetonitrile/100 mM ammonium acetate pH 4.5 containing an internal standard (ampicillin, 5 μg/mL). Samples were centrifuged at 3000 g for 10 minutes and the supernatants transferred to injection vials. First order degradation of the prodrug was monitored by LC/MS/MS as described below. Conversion to sulopenem was expressed as a percentage of the molar equivalent (50 μM) in a fortified sample. The results of the S9 and whole blood stability and conversion studies are shown in Table 2, where single values represent an average of two duplicate determinations.

The conditions of data set [4]: humans, about 500 mg equivalent dose; cited from earlier work.
Data set [5] has as its system Streptococcus pneumonia penicillin-intermediate. As to the kind of experiment: MIC90 of sulopenem (in vitro activity). The format is cell-based. The note with it: Streptococcus pneumoniae.
Another data set relates to Citrobacter freundii. As to the kind of experiment: MIC90 of sulopenem (in vitro activity). In kind it is cell-based.
In the next data set the test system is Listeria monocytogenes. As to the kind of experiment: MIC90 of sulopenem (in vitro activity). In kind it is cell-based. As to the method: (§1) The in vitro activity of sulopenem (B9) (the parent acid) based on minimum inhibitory concentration (MIC) was evaluated against pathogens involved in […] community and hospital infections, as summarized in Table 1.
For another data set, the system named is Prevotella spp. As to the kind of experiment: MIC90 of sulopenem (in vitro activity). In kind it is cell-based. How it is done:
as §1

The subject of another data set is Klebsiella oxytoca. As to the kind of experiment: MIC90 of sulopenem (in vitro activity). In kind it is cell-based. How it is done: as §1
For a further data set, the system named is Klebsiella pneumoniae. The data set can be described thus: MIC90 of sulopenem (in vitro activity). The format is cell-based. How it is done:
as §1

Data set [6] has as its system Staphylococcus aureus oxacillin-S. The data set can be described thus: MIC90 of sulopenem (in vitro activity). The format is cell-based. As to the method: as §1
In a further data set the test system is Salmonella/Shigella. As to the kind of experiment: MIC90 of sulopenem (in vitro activity). The format is cell-based. As to the method: as §1
Data set [7] concerns Streptococcus agalactiae (Group B). As to the kind of experiment: MIC90 of sulopenem (in vitro activity). The format is cell-based. As to the method:
as §1

The test system of another data set is Bacteroides fragilis. The data set can be described thus: MIC90 of sulopenem (in vitro activity). In kind it is cell-based.
A further data set has as its system Neisseria meningitides. As to the kind of experiment: MIC90 of sulopenem (in vitro activity). In kind it is cell-based.
Data set [8] concerns Haemophilus influenzae β-lactamase+. The data set can be described thus: MIC90 of sulopenem (in vitro activity). The format is cell-based.
The conditions of data set [9]: in vivo; cited from earlier work.
For a further data set, the system named is Enterobacter aerogenes. The data set can be described thus: MIC90 of sulopenem (in vitro activity). The note with it: Klebsiella aerogenes. In kind it is cell-based.
The test system of data set [10] is Streptococcus pyogenes (Group A). The data set can be described thus: MIC90 of sulopenem (in vitro activity). The format is cell-based.
Data set [11] relates to Haemophilus influenzae β-lactamase−. The data set can be described thus: MIC90 of sulopenem (in vitro activity). In kind it is cell-based.
The test system of data set [12] is Streptococcus pneumoniae levofloxacin-resistant. As to the kind of experiment: MIC90 of sulopenem (in vitro activity). The format is cell-based.
The next data set relates to Alloiococcus otitidis. As to the kind of experiment: MIC90 of sulopenem (in vitro activity). In kind it is cell-based. The note with it: Alloiococcus otitis.
The next data set has as its system Morganella morganii. The data set can be described thus: MIC90 of sulopenem (in vitro activity). The format is cell-based.
Data set [13] relates to Pseudomonas aeruginosa, Acinetobacter spp., Stenotrophomonas maltophilia, multi-resistant enterococci and methicillin-resistant staphylococci. As to the kind of experiment: Antibacterial spectrum: pathogens against which there is no activity. In kind it is cell-based.
In data set [14] the test system is Streptococcus pneumoniae penicillin-susceptible. As to the kind of experiment: MIC90 of sulopenem (in vitro activity). In kind it is cell-based.
The next data set relates to Proteus mirabilis. The data set can be described thus: MIC90 of sulopenem (in vitro activity). The format is cell-based.
The test system of data set [15] is Moraxella catarrhalis β-lactamase+. As to the kind of experiment: MIC90 of sulopenem (in vitro activity). The format is cell-based.
Data set [16] deals with Streptococcus pneumoniae penicillin-resistant. The data set can be described thus: MIC90 of sulopenem (in vitro activity). The format is cell-based.
A further data set relates to Legionella pneumophila. The data set can be described thus: microbe, parasite or virus in culture. In kind it is cell-based.
The subject of data set [17] is Moraxella catarrhalis β-lactamase−. As to the kind of experiment: MIC90 of sulopenem (in vitro activity). In kind it is cell-based.
For data set [18], the system named is Viridans Streptococcus group. The data set can be described thus: MIC90 of sulopenem (in vitro activity). The format is cell-based.
The subject of another data set is Citrobacter diversus. As to the kind of experiment: MIC90 of sulopenem (in vitro activity). The format is cell-based. The note with it: Citrobacter koseri.
Data set [19] relates to Klebsiella pneumoniae ESBL+. As to the kind of experiment: MIC90 of sulopenem (in vitro activity). The format is cell-based.
The test system of another data set is Clostridium perfringens. As to the kind of experiment: microbe, parasite or virus in culture. In kind it is cell-based.
The next data set relates to Enterobacter cloacae. The data set can be described thus: MIC90 of sulopenem (in vitro activity). The format is cell-based.
Data set [20] relates to Streptococcus bovis (Group D). The data set can be described thus: MIC90 of sulopenem (in vitro activity). In kind it is cell-based. The note with it: Streptococcus equinus.
For another data set, the system named is Escherichia coli. The data set can be described thus: MIC90 of sulopenem (in vitro activity). In kind it is cell-based.
The test system of data set [21] is Staphylococcus saprophyticus. As to the kind of experiment: MIC90 of sulopenem (in vitro activity). In kind it is cell-based.
The test system of data set [22] is Corynebacterium spp (not C. jeikeium). As to the kind of experiment: MIC90 of sulopenem (in vitro activity). In kind it is cell-based.

Each structure is given as a SMILES string. Converted amounts (≈) assume the structure as drawn. Where two headings read alike, the source gives them in different places.

On to `CCc1oc(=O)oc1COC(=O)C1=C(S[C@H]2CC[S@@+]([O-])C2)S[C@@H]2[C@@H]([C@@H](C)O)C(=O)N12` [Compound 1, (5-ethyl-2-oxo-1,3-dioxol-4-yl)methyl (5R,6S)-6-[(1R)-1-hydroxyethyl]-7-oxo-3-[[(1R,3S)-tetrahydro-1-oxido-3-thienyl]thio]-4-thia-1-azabicyclo[3.2.0]hept-2-ene-2-carboxylate], for which, in data set [1], the Km is 120 µM and the “HIJ CLint” value was 0.14 mL/min. The amount in solution in data set [2] (solubility) came to 1200 µg/mL (≈ 2520 µM). The half-life at 50 µM in [3] was found to be 3.11 min.
The matching figures for `CCCc1oc(=O)oc1COC(=O)C1=C(S[C@H]2CC[S@@+]([O-])C2)S[C@@H]2[C@@H]([C@@H](C)O)C(=O)N12` [Compound 2, (5-propyl-2-oxo-1,3-dioxol-4-yl)methyl (5R,6S)-6-[(1R)-1-hydroxyethyl]-7-oxo-3-[[(1R,3S)-tetrahydro-1-oxido-3-thienyl]thio]-4-thia-1-azabicyclo[3.2.0]hept-2-ene-2-carboxylate]: 22 µM, 0.16 mL/min, 507 µg/mL (≈ 1040 µM) and 3.62 min.
Regarding `Cc1oc(=O)oc1COC(=O)C1=C(S[C@H]2CC[S@@+]([O-])C2)S[C@@H]2[C@@H]([C@@H](C)O)C(=O)N12` [Compound C1, (5-Methyl-2-oxo-1,3-dioxol-4-yl)methyl (5R,6S)-6-[(1R)-1-hydroxyethyl]-7-oxo-3-[[(1R,3S)-tetrahydro-1-oxido-3-thienyl]thio]-4-thia-1-azabicyclo[3.2.0]hept-2-ene-2-carboxylate], in data set [1], the Km worked out at 172 µM and the “HIJ CLint” value is 0.13 mL/min. Further, the concentration in solution in data set [2] (solubility) came to 453 µg/mL (≈ 981 µM). Moreover, the half-life at 50 µM in data set [3] was 2.1 min.
In the case of `CC(O)C1C(=O)N2C(C(=O)OCOC(=O)C(C)(C)C)=C(SC3CC[S+]([O-])C3)SC12` (stereo not drawn) [POM ester], the “oral bioavailability” value in data set [4] was “less than optimal oral bioavailability”.
Turning to `C[C@@H](O)[C@H]1C(=O)N2C(C(=O)O)=C(S[C@H]3CC[S@@+]([O-])C3)S[C@H]12` [Sulopenem, (5R,6S)-6-[(1R)-1-hydroxyethyl]-7-oxo-3-[(1R,3S)-tetrahydro-1-oxido-3-thienylthio]-4-thia-1-azabicyclo[3.2.0]hept-2-ene-2-carboxylic acid], the MIC90 in data set [5] is 0.25 µg/mL (≈ 0.715 µM); against Citrobacter freundii, 0.25 µg/mL (≈ 0.715 µM); in the data set with Listeria monocytogenes, 0.125 µg/mL (≈ 0.358 µM); in the data set with Prevotella spp it was 0.125 µg/mL (≈ 0.358 µM); with Klebsiella oxytoca, 0.125 µg/mL (≈ 0.358 µM); with Klebsiella pneumoniae, 0.125 µg/mL (≈ 0.358 µM). For the same compound, the MIC90 in data set [6] amounted to 0.125 µg/mL (≈ 0.358 µM); with Salmonella/Shigella, 0.125 µg/mL (≈ 0.358 µM); in [7] it was 0.125 µg/mL (≈ 0.358 µM); with Bacteroides fragilis it was 0.5 µg/mL (≈ 1.43 µM); against Neisseria meningitides, 0.06 µg/mL (≈ 0.172 µM); in data set [8], 0.5 µg/mL (≈ 1.43 µM). For the same compound, the MIC90 with Enterobacter aerogenes turned out to be 0.5 µg/mL (≈ 1.43 µM); in data set [10], 0.03 µg/mL (≈ 0.0858 µM); in [11] it was 0.25 µg/mL (≈ 0.715 µM); in data set [12], 0.5 µg/mL (≈ 1.43 µM); against Alloiococcus otitidis it was 1 µg/mL (≈ 2.86 µM); in the data set with Morganella morganii it was 2 µg/mL (≈ 5.72 µM). Also, the MIC90 in data set [14] was determined as 0.03 µg/mL (≈ 0.0858 µM); in the data set on Proteus mirabilis it was 0.5 µg/mL (≈ 1.43 µM); in data set [15], 0.125 µg/mL (≈ 0.358 µM); in data set [16], 1 µg/mL (≈ 2.86 µM); in the data set on Legionella pneumophila it was 0.06 µg/mL (≈ 0.172 µM); in data set [17] it was 0.03 µg/mL (≈ 0.0858 µM). Further, the MIC90 amounted to 0.25 µg/mL (≈ 0.715 µM) in [18]; 0.06 µg/mL (≈ 0.172 µM) with Citrobacter diversus; 0.25 µg/mL (≈ 0.715 µM) in data set [19]; 0.06 µg/mL (≈ 0.172 µM) in the data set with Clostridium perfringens; 1 µg/mL (≈ 2.86 µM) with Enterobacter cloacae; 0.06 µg/mL (≈ 0.172 µM) in data set [20]. Further, the MIC90 in the data set with Escherichia coli turned out to be 0.06 µg/mL (≈ 0.172 µM); in data set [21] it was 0.5 µg/mL (≈ 1.43 µM); in data set [22] it was 2 µg/mL (≈ 5.72 µM). Also, the “oral bioavailability” value in [9] was “not appreciably orally bioavailable”. In addition, in data set [13], the “antibacterial activity” value was “not active”.
